PubChem BioAssay (NCI)
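Grown in 96-well plates, cells were treated for 48 hours with each compound at five concentrations. Insufficient inhibition: endpoint recorded as highest concentration tested. GI50 marks 50% less growth. At the TGI there is no net growth.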

Assays:
Assay in all cases: NCI tumour cell line growth inhibition, 48 h
[1] = tested on: BT-549 breast
[2] = tested on: CAKI-1 renal
[3] = tested on: HCC-2998 colon
[4] = tested on: M14 melanoma
[5] = tested on: NCI-H23 lung
[6] = tested on: OVCAR-8 ovarian
[7] = tested on: SF-295 CNS
[8] = tested on: SNB-19 CNS
[9] = tested on: SR leukemia
[10] = tested on: UACC-257 melanoma

Structure (SMILES)	GI50 [1]	TGI [1]	GI50 [2]	TGI [2]	GI50 [3]	TGI [3]	GI50 [4]	TGI [4]	GI50 [5]	TGI [5]	GI50 [6]	TGI [6]	GI50 [7]	TGI [7]	GI50 [8]	TGI [8]	GI50 [9]	TGI [9]	GI50 [10]	TGI [10]
CC(=N\O)/C(C)=N/O.CC(=N\O)/C(C)=N/O.[Pd]	8.49 µM	> 10 µM	> 10 µM	> 10 µM	> 10 µM	> 10 µM	3.04 µM	8.55 µM	2.6 µM	6.38 µM	1.84 µM	3.62 µM	> 10 µM	> 10 µM	> 10 µM	> 10 µM	> 10 µM	> 10 µM	3.15 µM	> 10 µM
CCCCCCCC(=O)SCC/C=C/[C@@H]1CC(=O)NCc2cccc(n2)CN(Cc2ccc(Cl)cc2)CC(=O)N[C@@H](C(C)C)C(=O)O1	37.1 µM	> 100 µM	28 µM	> 100 µM	13.8 µM	43.7 µM	9.1 µM	> 100 µM	13.7 µM	> 100 µM	9.1 µM	> 100 µM	4.45 µM	20.3 µM	22.6 µM	> 100 µM	3.64 µM	> 100 µM	8.99 µM	70.4 µM
NS(=O)(=O)OC[C@H]1O[C@@H](n2cnc3c(N[C@H]4CCc5ccccc54)ncnc32)[C@H](O)[C@@H]1O	0.0298 µM	0.081 µM	0.054 µM	0.181 µM	0.157 µM	0.331 µM	0.226 µM	2.35 µM	0.185 µM	1.26 µM	0.0865 µM	1.02 µM	0.387 µM	1.94 µM	0.0902 µM	2.05 µM	0.0368 µM	> 52.6 µM	0.213 µM	0.577 µM
COc1ccc2c(c1)Cc1cc(N=[N+]([O-])c3ccc4c(c3)Cc3cc(OC)ccc3-4)ccc1-2	–	> 100 µM	–	> 100 µM	–	27.3 µM	–	> 100 µM	–	> 100 µM	–	> 100 µM	–	> 100 µM	–	> 100 µM	–	41.5 µM	–	52.7 µM
COC(=O)C1=C(O)C(C(=O)OC)[C@@]2(O)[C@@H](C(=O)OC)C(c3ccc(OC(=O)C(Cc4ccccc4)NC(C)=O)cc3)C[C@@H]1[C@@H]2C(=O)OC (some centres not stated)	38 µM	> 100 µM	38.7 µM	> 100 µM	–	–	20.7 µM	47.2 µM	19.9 µM	48.1 µM	23.1 µM	59.2 µM	32.8 µM	69.3 µM	36.4 µM	> 100 µM	3.35 µM	> 100 µM	13.9 µM	50.5 µM
COc1cc(C2C3=C(COC3=O)N(CCO)c3cc4c(cc32)OCCO4)cc(OC)c1O (configuration not stated)	5.71 µM	> 27.8 µM	2.84 µM	> 45 µM	2.04 µM	19 µM	1.43 µM	> 21 µM	2.46 µM	> 50 µM	2.76 µM	> 50 µM	1.22 µM	4.12 µM	2.11 µM	> 50 µM	1.86 µM	> 50 µM	> 10.2 µM	> 50 µM
CC(C)n1c2c(c3ccccc3c1=O)C(=O)c1ccccc1-2	–	> 100 µM	–	> 100 µM	–	> 100 µM	–	> 100 µM	–	> 100 µM	–	> 100 µM	–	> 100 µM	–	> 100 µM	–	> 100 µM	–	> 100 µM
N=C(N)c1ccc(-c2ccc(-c3ccco3)o2)cc1	5.9 µM	19.8 µM	3.94 µM	16.6 µM	1.85 µM	3.42 µM	1.9 µM	3.77 µM	11 µM	26.6 µM	8.22 µM	30.7 µM	–	–	9.44 µM	23.2 µM	3.17 µM	10.7 µM	1.84 µM	3.73 µM
COc1ccc(CNCCN2C(=O)c3ccc4c5c(ccc(c35)C2=O)C(=O)N(CCNCc2ccc(OC)cc2)C4=O)cc1	0.35 µM	1.03 µM	1.04 µM	3.38 µM	0.304 µM	1.05 µM	0.169 µM	0.348 µM	0.206 µM	0.494 µM	0.178 µM	0.611 µM	0.418 µM	1.83 µM	0.23 µM	0.717 µM	0.22 µM	0.984 µM	0.184 µM	0.337 µM
COc1ccc(C2CC(c3cccc(Nc4ccnc5cc(Cl)ccc45)c3)=NN2c2ccccc2)cc1 (configuration not stated)	7.42 µM	39.2 µM	0.681 µM	> 100 µM	0.535 µM	11.5 µM	0.331 µM	15.4 µM	8.78 µM	59.7 µM	2.85 µM	38.8 µM	1.62 µM	16.4 µM	6.9 µM	> 100 µM	1.17 µM	8.52 µM	1.36 µM	31.4 µM
OCCOCn1nc(-c2ccccc2)nc1-c1cnccn1	–	> 100 µM	–	–	–	> 100 µM	–	> 100 µM	–	> 100 µM	–	> 100 µM	–	> 100 µM	–	> 100 µM	–	> 100 µM	–	> 100 µM
Oc1ccc(Br)cc1CN1CCN(Cc2ccc(Cl)cc2)CC1	38.2 µM	> 100 µM	22.7 µM	> 100 µM	30.8 µM	> 100 µM	–	–	16.5 µM	> 100 µM	24.8 µM	> 100 µM	18.6 µM	> 100 µM	37.8 µM	> 100 µM	19.1 µM	80.9 µM	16.5 µM	59.4 µM
COc1ccc(/C(C#N)=C/c2nc3c(N4CCOCC4)nc(Cl)nc3n2C)cc1OC	< 0.01 µM	0.244 µM	< 0.01 µM	1.38 µM	0.0163 µM	1.22 µM	< 0.01 µM	–	< 0.01 µM	2.74 µM	< 0.01 µM	3.97 µM	< 0.01 µM	2.17 µM	< 0.01 µM	2.91 µM	< 0.01 µM	3.68 µM	1.29 µM	2.87 µM
